In patent US8338608B2, “Inhibitors of ion channels” (Icagen Inc., priority 2005, dated 2012):

These compounds were tested against T1, hSCN3A (Homo sapiens, UniProt Q9NY46) (assay: SCN3A inhibitory activity in HEK cells stably expressing hSCN3A (whole-cell patch clamp / radiotracer efflux HTS)). Details: HEK cells stably transfected with hSCN3A; read-out: SCN3A Inhibitory Activity.
T1 construct: expressed in transfected cells
Assay type: cell-based

T1 sequence (Q9NY46 whole entry): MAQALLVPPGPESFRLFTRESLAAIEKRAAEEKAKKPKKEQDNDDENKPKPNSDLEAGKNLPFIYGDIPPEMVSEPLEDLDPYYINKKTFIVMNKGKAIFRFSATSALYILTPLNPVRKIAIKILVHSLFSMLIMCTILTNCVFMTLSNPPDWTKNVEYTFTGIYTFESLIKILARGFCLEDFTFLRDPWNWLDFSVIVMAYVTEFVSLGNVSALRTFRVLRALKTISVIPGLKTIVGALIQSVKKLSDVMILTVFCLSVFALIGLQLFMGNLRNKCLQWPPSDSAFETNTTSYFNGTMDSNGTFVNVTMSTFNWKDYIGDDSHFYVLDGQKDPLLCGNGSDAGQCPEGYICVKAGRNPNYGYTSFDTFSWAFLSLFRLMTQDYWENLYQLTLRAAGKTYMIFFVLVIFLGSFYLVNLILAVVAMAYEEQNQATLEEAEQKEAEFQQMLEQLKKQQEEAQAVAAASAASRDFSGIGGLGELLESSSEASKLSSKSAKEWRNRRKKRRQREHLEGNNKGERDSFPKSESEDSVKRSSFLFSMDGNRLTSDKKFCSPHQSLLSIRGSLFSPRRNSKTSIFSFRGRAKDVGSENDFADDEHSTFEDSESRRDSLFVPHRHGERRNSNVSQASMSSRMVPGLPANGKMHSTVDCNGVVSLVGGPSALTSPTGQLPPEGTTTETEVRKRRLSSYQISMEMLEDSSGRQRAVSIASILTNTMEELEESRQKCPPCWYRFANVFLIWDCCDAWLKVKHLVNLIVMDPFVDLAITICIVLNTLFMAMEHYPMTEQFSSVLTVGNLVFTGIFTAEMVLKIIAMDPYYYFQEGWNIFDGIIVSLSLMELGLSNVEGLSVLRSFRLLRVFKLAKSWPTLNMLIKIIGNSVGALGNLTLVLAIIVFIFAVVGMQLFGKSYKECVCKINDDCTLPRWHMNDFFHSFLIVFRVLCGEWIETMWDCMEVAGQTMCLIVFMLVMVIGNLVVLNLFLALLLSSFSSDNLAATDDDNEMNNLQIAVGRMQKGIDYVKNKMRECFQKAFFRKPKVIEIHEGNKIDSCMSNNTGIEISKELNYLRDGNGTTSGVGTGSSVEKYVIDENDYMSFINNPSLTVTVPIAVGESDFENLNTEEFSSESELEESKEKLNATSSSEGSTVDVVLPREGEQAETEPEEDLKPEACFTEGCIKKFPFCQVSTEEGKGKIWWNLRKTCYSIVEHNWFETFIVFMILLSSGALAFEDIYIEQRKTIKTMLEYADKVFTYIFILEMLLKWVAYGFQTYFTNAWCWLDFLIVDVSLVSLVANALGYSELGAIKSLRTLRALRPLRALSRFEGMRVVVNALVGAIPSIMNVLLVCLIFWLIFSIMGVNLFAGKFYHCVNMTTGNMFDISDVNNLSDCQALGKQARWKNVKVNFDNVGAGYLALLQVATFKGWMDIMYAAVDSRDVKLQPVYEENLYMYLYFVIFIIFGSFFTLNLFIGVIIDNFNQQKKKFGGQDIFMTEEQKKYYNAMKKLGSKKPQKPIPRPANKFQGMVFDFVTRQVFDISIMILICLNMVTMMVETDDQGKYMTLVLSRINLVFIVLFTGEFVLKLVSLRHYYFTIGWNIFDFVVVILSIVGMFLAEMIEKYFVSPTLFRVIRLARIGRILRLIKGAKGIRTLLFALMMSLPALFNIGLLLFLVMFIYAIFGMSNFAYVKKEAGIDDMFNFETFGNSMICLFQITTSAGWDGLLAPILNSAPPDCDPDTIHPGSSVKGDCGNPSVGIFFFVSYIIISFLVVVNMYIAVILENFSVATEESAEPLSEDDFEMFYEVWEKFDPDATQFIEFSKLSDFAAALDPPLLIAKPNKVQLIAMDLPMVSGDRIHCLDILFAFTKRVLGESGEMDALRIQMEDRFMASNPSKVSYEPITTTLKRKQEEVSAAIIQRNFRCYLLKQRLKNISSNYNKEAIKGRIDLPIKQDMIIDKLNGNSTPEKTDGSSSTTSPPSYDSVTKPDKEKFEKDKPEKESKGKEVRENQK

Question: `C[C@@H](CNS(=O)(=O)c1ccc(S(=O)(=O)Nc2ncc(Cl)s2)cc1)Oc1ccc(Cl)cc1` [Compound 33, Benzene-1,4-disulfonic acid 1-{[(S)-2-(4-chloro-phenoxy)-propyl]-amide} 4-[(5-chloro-thiazol-2-yl)-amide]] was tested. Which IC50 did it give?
Answer: Its IC50 is 100 to 500 nM.

Question: How did the IC50 turn out when `O=S(=O)(NCCc1ccc(Cl)c(Cl)c1)c1cc(F)c(S(=O)(=O)Nc2nccs2)cc1F` [Compound 25, 2,5-Difluoro-benzene-1,4-disulfonic acid 1-{[2-(3,4-dichloro-phenyl)-ethyl]-amide} 4-thiazol-2-ylamide] was run?
Answer: The IC50 was 100 to 500 nM.

Question: How did the IC50 turn out when `O=S(=O)(Nc1ccc(S(=O)(=O)Nc2nccs2)cc1)N[C@@H]1C[C@H]1c1ccccc1` (relative stereo) [Compound 4, N-(trans-2-phenylcyclopropyl)-N′-[4-(N-thiazol-2-yl-sulfonamyl)-phenyl]-sulfamide] was run?
Answer: Its IC50 is < 100 nM.

Question: How did the IC50 turn out when `CC(C)(C)c1ccc(NCCNS(=O)(=O)c2ccc(S(=O)(=O)Nc3nccs3)cc2)cc1` [Compound 16, Benzene-1,4-disulfonic acid 1-{[2-(4-tert-butyl-phenylamino)-ethyl]-amide} 4-thiazol-2-ylamide] was run?
Answer: Its IC50 is < 100 nM.

Question: Which IC50 does the source give for `O=S(=O)(NCCC1CCOCC1)Nc1ccc(S(=O)(=O)Nc2nccs2)cc1` [Compound 46, N-[2-(4-tetrahydro-pyranyl]-ethyl]-N′-[4-(N-thiazol-2-yl-sulfonamyl)-phenyl]-sulfamide] here?
Answer: The IC50 was > 1000 nM.

Question: How did the IC50 turn out when `O=S(=O)(NCc1ccc(C(F)(F)F)cc1)c1ccc(S(=O)(=O)Nc2ncc(Cl)s2)cc1` [Compound 15, Benzene-1,4-disulfonic acid 1-[(5-chloro-thiazol-2-yl)-amide] 4-(4-trifluoromethyl-benzylamide)] was run?
Answer: The IC50 was < 100 nM.

Question: `O=S(=O)(NCCc1ccc(Cl)c(Cl)c1)Nc1ccc(S(=O)(=O)Nc2nccs2)cc1` [Compound 3] was tested. Which IC50 did it give?
Answer: Its IC50 is < 100 nM.

Question: For `O=S(=O)(Nc1ncc(Cl)s1)c1ccc(S(=O)(=O)N2CCN(c3ccc(Cl)cc3F)CC2)cc1` [Compound 10, 4-[4-(4-Chloro-2-fluoro-phenyl)-piperazine-1-sulfonyl]-N-(5-chloro-thiazol-2-yl)-benzenesulfonamide], which IC50 is on record?
Answer: Its IC50 is < 100 nM.

Question: With `Cc1cc(OCCNS(=O)(=O)c2ccc(S(=O)(=O)Nc3nccs3)cc2)ccc1Cl` [Compound 18, Benzene-1,4-disulfonic acid 1-{[2-(4-chloro-3-methyl-phenoxy)-ethyl]-amide} 4-thiazol-2-ylamide] as the compound, how does the IC50 read?
Answer: The IC50 was < 100 nM.

Question: How did the IC50 turn out when `C[C@H](CNS(=O)(=O)c1ccc(S(=O)(=O)Nc2ncc(Cl)s2)cc1)Oc1ccc(Cl)cc1` [Compound 32, Benzene-1,4-disulfonic acid 1-{[(R)-2-(4-chloro-phenoxy)-propyl]-amide} 4-[(5-chloro-thiazol-2-yl)-amide]] was run?
Answer: Its IC50 is 100 to 500 nM.

Question: With `O=S(=O)(NCCc1ccc(Oc2ccccc2)cc1)Nc1ccc(S(=O)(=O)Nc2nccs2)cc1` [Compound 5, N-[2-(4-phenoxyl-phenyl)-ethyl]-N′-[4-(N-thiazol-2-yl-sulfonamyl)-phenyl]-sulfamide] as the compound, how does the IC50 read?
Answer: The IC50 was < 100 nM.

Question: `COc1ccc(CNS(=O)(=O)c2ccc(S(=O)(=O)Nc3nccs3)cc2)cc1Cl` [Compound 37, Benzene-1,4-disulfonic acid 1-(3-chloro-4-methoxy-benzylamide) 4-thiazol-2-ylamide] was tested. Which IC50 did it give?
Answer: Its IC50 is 100 to 500 nM.

Question: For `CC(C)(CNS(=O)(=O)c1ccc(S(=O)(=O)Nc2nccs2)cc1)c1ccc(Cl)cc1` [Compound 39, Benzene-1,4-disulfonic acid 1-{[2-(4-chloro-phenyl)-2-methyl-propyl]-amide} 4-thiazol-2-ylamide], which IC50 is on record?
Answer: Its IC50 is 100 to 500 nM.

Question: For `O=S(=O)(NCCCOc1ccc(Cl)cc1)c1ccc(S(=O)(=O)Nc2ncc(Cl)s2)cc1` [Compound 12, Benzene-1,4-disulfonic acid 1-{[3-(4-chloro-phenoxy)-propyl]-amide} 4-[(5-chloro-thiazol-2-yl)-amide]], which IC50 is on record?
Answer: Its IC50 is < 100 nM.

Question: For `O=S(=O)(NCC1COc2cc(Cl)c(Cl)cc2O1)c1ccc(S(=O)(=O)Nc2nccs2)cc1` (stereo not drawn) [Compound 9, Benzene-1,4-disulfonic acid 1-[(6,7-dichloro-2,3-dihydro-benzo[1,4]dioxin-2-ylmethyl)-amide] 4-thiazol-2-ylamide], which IC50 is on record?
Answer: Its IC50 is < 100 nM.

Question: How did the IC50 turn out when `O=S(=O)(NCC1(Oc2ccc(Cl)cc2F)CCC1)c1ccc(S(=O)(=O)Nc2nccs2)cc1` [Compound 20, Benzene-1,4-disulfonic acid 1-{[1-(4-chloro-2-fluoro-phenoxy)-cyclobutylmethyl]-amide} 4-thiazol-2-ylamide] was run?
Answer: The IC50 was < 100 nM.

Question: Which IC50 does the source give for `O=S(=O)(NCCC(c1ccccc1)c1ccccc1)Nc1ccc(S(=O)(=O)Nc2nccs2)cc1` [Compound 2, N-(3,3-diphenylpropyl]-N′-[4-(N-thiazol-2-yl-sulfonamyl)-phenyl]-sulfamide] here?
Answer: The IC50 was < 100 nM.

Question: For `O=S(=O)(NCC(c1ccccc1)c1ccccc1)c1ccc(S(=O)(=O)Nc2nccs2)cc1` [Compound 24, Benzene-1,4-disulfonic acid 1-[(2,2-diphenyl-ethyl)-amide] 4-thiazol-2-ylamide], which IC50 is on record?
Answer: Its IC50 is 100 to 500 nM.

Question: `O=S(=O)(Nc1nccs1)c1ccc(S(=O)(=O)N2CCC(Oc3cccc(Cl)c3)CC2)cc1` [Compound 8, 4-[4-(3-Chloro-phenoxy)-piperidine-1-sulfonyl]-N-thiazol-2-yl-benzenesulfonamide] was tested. Which IC50 did it give?
Answer: Its IC50 is < 100 nM.

Question: Which IC50 does the source give for `CC(C)(CNS(=O)(=O)c1ccc(S(=O)(=O)Nc2nccs2)cc1)Nc1ccc(C(C)(C)C)cc1` [Compound 31, Benzene-1,4-disulfonic acid 1-{[2-(4-tert-butyl-phenylamino)-2-methyl-propyl]-amide} 4-thiazol-2-ylamide] here?
Answer: The IC50 was 100 to 500 nM.

Question: With `O=S(=O)(Nc1nccs1)c1ccc(S(=O)(=O)N2CCC[C@H]2COc2ccc(Cl)cc2)cc1` [Compound 19, 4-[(S)-2-(4-chloro-phenoxymethyl)-pyrrolidine-1-sulfonyl]-N-thiazol-2-yl-benzenesulfonamide] as the compound, how does the IC50 read?
Answer: The IC50 was < 100 nM.

Question: How did the IC50 turn out when `CN(CCNS(=O)(=O)c1ccc(S(=O)(=O)Nc2nccs2)cc1)c1ccc(Cl)cc1` [Compound 13, Benzene-1,4-disulfonic acid 1-({2-[(4-chloro-phenyl)-methyl-amino]-ethyl}-amide) 4-thiazol-2-ylamide] was run?
Answer: Its IC50 is < 100 nM.

Question: Which IC50 does the source give for `O=S(=O)(NCC1(c2ccc(Cl)cc2)CCC1)c1ccc(S(=O)(=O)Nc2nccs2)cc1` [Compound 21, Benzene-1,4-disulfonic acid 1-{[1-(4-chloro-phenyl)-cyclobutylmethyl]-amide} 4-thiazol-2-ylamide] here?
Answer: The IC50 was < 100 nM.

Question: How did the IC50 turn out when `O=S(=O)(NCc1cc(F)cc(C(F)(F)F)c1)c1ccc(S(=O)(=O)Nc2nccs2)cc1` [Compound 40, Benzene-1,4-disulfonic acid 1-(3-fluoro-5-trifluoromethyl-benzylamide) 4-thiazol-2-ylamide] was run?
Answer: Its IC50 is 100 to 500 nM.

Question: How did the IC50 turn out when `CC(C)(C)CCNS(=O)(=O)c1ccc(S(=O)(=O)Nc2nccs2)c(F)c1` [Compound 42, 2-Fluoro-benzene-1,4-disulfonic acid 4-[(3,3-dimethyl-butyl)-amide] 1-thiazol-2-ylamide] was run?
Answer: Its IC50 is 100 to 500 nM.

Question: Which IC50 does the source give for `O=S(=O)(Nc1ncc(Cl)s1)c1ccc(S(=O)(=O)N2CC(Oc3ncc(C(F)(F)F)cc3Cl)C2)cc1` [Compound 26, N-(5-chloro-thiazol-2-yl)-4-[3-(3-chloro-5-trifluoromethyl-pyridin-2-yloxy)-azetidine-1-sulfonyl]-benzenesulfonamide] here?
Answer: Its IC50 is 100 to 500 nM.

Question: With `O=S(=O)(NCC(c1ccccc1)c1ccccc1)Nc1ccc(S(=O)(=O)Nc2nccs2)cn1` [Compound 45] as the compound, how does the IC50 read?
Answer: The IC50 was > 1000 nM.

Question: With `CC(C)(CNS(=O)(=O)c1ccc(S(=O)(=O)Nc2ncc(Cl)s2)cc1)Oc1ccc(C(C)(C)C)cc1` [Compound 14, Benzene-1,4-disulfonic acid 1-{[2-(4-tert-butyl-phenoxy)-2-methyl-propyl]-amide} 4-[(5-chloro-thiazol-2-yl)-amide]] as the compound, how does the IC50 read?
Answer: Its IC50 is < 100 nM.

Question: Which IC50 does the source give for `CC(C)(C)c1ccc(OCCNS(=O)(=O)c2ccc(S(=O)(=O)Nc3ncc(Cl)s3)cc2)cc1` [Compound 6, Benzene-1,4-disulfonic acid 1-{[2-(4-tert-butyl-phenoxy)-ethyl]-amide} 4-[(5-chloro-thiazol-2-yl)-amide]] here?
Answer: The IC50 was < 100 nM.

Question: `O=S(=O)(NCCC1CCCCC1)c1ccc(S(=O)(=O)Nc2nccs2)cc1` [Compound 44, Benzene-1,4-disulfonic acid 1-[(2-cyclohexyl-ethyl)-amide] 4-thiazol-2-ylamide] was tested. Which IC50 did it give?
Answer: Its IC50 is 500 to 1000 nM.

Question: Which IC50 does the source give for `O=S(=O)(NCC(c1ccccc1)c1ccccc1)Nc1ccc(S(=O)(=O)Nc2nccs2)cc1` [Compound 1] here?
Answer: Its IC50 is < 100 nM.

Question: `CC(C)(C)CCNS(=O)(=O)c1ccc(S(=O)(=O)Nc2ncc(Cl)s2)cc1` [Compound 7, Benzene-1,4-disulfonic acid 1-[(5-chloro-thiazol-2-yl)-amide] 4-[(3,3-dimethyl-butyl)-amide]] was tested. Which IC50 did it give?
Answer: The IC50 was < 100 nM.

Question: Which IC50 does the source give for `O=S(=O)(NCCOc1ccccc1Cl)Nc1ccc(S(=O)(=O)Nc2nccs2)cc1` [Compound 43, N-[2-(2-chloro-phenoxyl)-ethyl]-N′-[4-(N-thiazol-2-yl-sulfonamyl)-phenyl]-sulfamide] here?
Answer: The IC50 was 500 to 1000 nM.

Question: For `CC(C)(C)c1ccc(CNS(=O)(=O)c2ccc(S(=O)(=O)Nc3nccs3)cc2)cc1` [Compound 11, Benzene-1,4-disulfonic acid 1-(4-tert-butyl-benzylamide) 4-thiazol-2-ylamide], which IC50 is on record?
Answer: Its IC50 is < 100 nM.

Question: `O=S(=O)(Nc1nccs1)c1ccc(NS(=O)(=O)N2CCN(c3ccc(Cl)c(Cl)c3)CC2)cc1` [Compound 23, 4-(3,4-Dichloro-phenyl)-piperazine-1-sulfonic acid [4-(thiazol-2-ylsulfamoyl)-phenyl]-amide] was tested. Which IC50 did it give?
Answer: Its IC50 is 100 to 500 nM.

Question: How did the IC50 turn out when `CC(C)(C)c1ccc(OC2(CNS(=O)(=O)c3ccc(S(=O)(=O)Nc4nccs4)cc3)CCCC2)cc1` [Compound 38, Benzene-1,4-disulfonic acid 1-{[1-(4-tert-butyl-phenoxy)-cyclopentylmethyl]-amide} 4-thiazol-2-ylamide] was run?
Answer: The IC50 was 100 to 500 nM.

Question: `O=S(=O)(NCCC(c1ccccc1)c1ccccc1)Nc1ccc(S(=O)(=O)Nc2nccs2)nc1` [Compound 22] was tested. Which IC50 did it give?
Answer: The IC50 was 100 to 500 nM.

Question: Which IC50 does the source give for `O=S(=O)(NCCc1ccc(Cl)cc1)c1ccc(S(=O)(=O)Nc2nccs2)cc1` [Compound 27, Benzene-1,4-disulfonic acid 1-{[2-(4-chloro-phenyl)-ethyl]-amide} 4-thiazol-2-ylamide] here?
Answer: Its IC50 is 100 to 500 nM.

Question: Which IC50 does the source give for `O=S(=O)(NCCc1ccc(Cl)s1)c1ccc(S(=O)(=O)Nc2nccs2)cc1` [Compound 41, Benzene-1,4-disulfonic acid 1-{[2-(5-chloro-thiophen-2-yl)-ethyl]-amide} 4-thiazol-2-ylamide] here?
Answer: The IC50 was 100 to 500 nM.
